≈ marks a conversion by molar mass, not a printed value. Like-named read-outs stand apart in the source and are kept apart here. Where a SMILES comes first, the peptide text is derived from it. [ ]: non-standard residue; d: D form. The star is where a group is joined. Bip(2'-Et,4'-O(CH2)4NH2) = CCc1cc(OCCCCN)ccc1-c1ccc(C[C@H](N)C(=O)O)cc1; Malonyl(2,2-Me2,histaminyl) = CC(C)(C(=O)NCCc1cnc[nH]1)C(=O)*; Nva(5-(3,5-Me2Ph)) = Cc1cc(C)cc(CCC[C@H](N)C(=O)O)c1; Ala(1H-tetrazol-5-yl) = N[C@@H](Cc1nnn[nH]1)C(=O)O; αMePhe(2-F) = C[C@](N)(Cc1ccccc1F)C(=O)O
What was measured:
hERG potassium channels = hERG potassium channels (Homo sapiens, UniProt Q12809); test: cell-based
Chain of hERG potassium channels (Q12809 whole entry): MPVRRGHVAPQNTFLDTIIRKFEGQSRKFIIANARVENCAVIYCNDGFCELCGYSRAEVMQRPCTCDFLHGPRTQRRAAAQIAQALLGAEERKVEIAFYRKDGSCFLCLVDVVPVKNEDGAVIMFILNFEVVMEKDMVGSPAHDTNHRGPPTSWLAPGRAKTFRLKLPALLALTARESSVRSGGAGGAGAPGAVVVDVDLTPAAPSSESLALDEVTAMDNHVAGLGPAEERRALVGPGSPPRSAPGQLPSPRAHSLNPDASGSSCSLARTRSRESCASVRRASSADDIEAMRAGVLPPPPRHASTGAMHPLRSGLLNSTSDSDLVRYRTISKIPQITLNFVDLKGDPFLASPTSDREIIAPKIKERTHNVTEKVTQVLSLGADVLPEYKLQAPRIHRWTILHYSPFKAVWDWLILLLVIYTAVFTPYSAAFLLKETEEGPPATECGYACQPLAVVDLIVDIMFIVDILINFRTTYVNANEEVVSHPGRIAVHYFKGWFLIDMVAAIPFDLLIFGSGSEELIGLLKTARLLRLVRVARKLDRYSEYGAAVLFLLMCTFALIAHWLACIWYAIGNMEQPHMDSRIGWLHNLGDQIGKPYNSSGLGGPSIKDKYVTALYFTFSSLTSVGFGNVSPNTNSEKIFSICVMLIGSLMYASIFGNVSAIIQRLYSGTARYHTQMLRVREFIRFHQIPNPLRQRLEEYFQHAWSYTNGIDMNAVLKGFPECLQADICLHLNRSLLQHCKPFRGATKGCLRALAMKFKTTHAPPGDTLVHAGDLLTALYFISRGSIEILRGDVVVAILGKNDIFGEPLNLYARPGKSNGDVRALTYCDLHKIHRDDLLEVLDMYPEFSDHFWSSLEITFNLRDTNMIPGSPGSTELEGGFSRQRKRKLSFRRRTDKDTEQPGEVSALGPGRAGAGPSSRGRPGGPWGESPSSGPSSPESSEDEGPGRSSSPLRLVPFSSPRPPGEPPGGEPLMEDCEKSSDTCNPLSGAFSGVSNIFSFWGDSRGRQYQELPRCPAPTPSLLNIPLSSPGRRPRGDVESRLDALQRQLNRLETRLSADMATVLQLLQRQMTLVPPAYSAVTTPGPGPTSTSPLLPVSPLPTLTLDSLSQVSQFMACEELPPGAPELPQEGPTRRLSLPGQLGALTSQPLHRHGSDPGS
Procedure: For the assay, CHO cells stably expressing hERG potassium channels were plated and cultured for at least 2 days in a humidified and air-controlled (5% CO2) incubator at 37° C. prior to use in electrophysiological experiments. Cells were then harvested using TrypLE and resuspended in physiological solution (10 mM HEPES, 80 mM NaCl, 4 mM KCl, 2 mM CaCl2, 1 mM MgCl2, 5 mM Glucose, 60 mM NM DG, pH 7.4). Test compounds were dissolved in water to obtain stock solutions for different test concentrations. […] One 40 μL addition of the vehicle was applied, followed by a 300s baseline recording period. […] Recordings were required to pass quality control over the duration of the recording or the well was abandoned, and the compound was retested, all automatically set by PatchControl. […] A minimum of 2 replicates per concentration were obtained. […] Curve-fitting and IC50 value calculations were performed by GraphPad Prism 5.0.

[1] = Plasma protein binding (equilibrium dialysis); assay type: in vitro ADME, human
Procedure: The pH value of the resulting plasma was checked
(<http://www.htdialysis.com/>).
DMSO working solutions were prepared at 400 μM. […] These samples were transferred into new 96-well plates.

Water solubility = assay type: physicochemical; details: Table 5C
[2] = molecular target: T1, human glucagon-like peptide 2 receptor (GLP2R) (Homo sapiens, UniProt O95838); test: CRE-luciferase reporter assay, HEK293/Myc-hGLP2R/Cre-Luc (Example 9); assay type: cell-based; details: Table 5C
T1 construct: full-length human GLP1R, cynomolgus GLP1R, human glucagon receptor (GCGR), human glucagon-like peptide 2 receptor (GLP2R); expressed in transfected cells; host or cells: HEK293/CRE-Luc
T1 sequence (O95838 1-553): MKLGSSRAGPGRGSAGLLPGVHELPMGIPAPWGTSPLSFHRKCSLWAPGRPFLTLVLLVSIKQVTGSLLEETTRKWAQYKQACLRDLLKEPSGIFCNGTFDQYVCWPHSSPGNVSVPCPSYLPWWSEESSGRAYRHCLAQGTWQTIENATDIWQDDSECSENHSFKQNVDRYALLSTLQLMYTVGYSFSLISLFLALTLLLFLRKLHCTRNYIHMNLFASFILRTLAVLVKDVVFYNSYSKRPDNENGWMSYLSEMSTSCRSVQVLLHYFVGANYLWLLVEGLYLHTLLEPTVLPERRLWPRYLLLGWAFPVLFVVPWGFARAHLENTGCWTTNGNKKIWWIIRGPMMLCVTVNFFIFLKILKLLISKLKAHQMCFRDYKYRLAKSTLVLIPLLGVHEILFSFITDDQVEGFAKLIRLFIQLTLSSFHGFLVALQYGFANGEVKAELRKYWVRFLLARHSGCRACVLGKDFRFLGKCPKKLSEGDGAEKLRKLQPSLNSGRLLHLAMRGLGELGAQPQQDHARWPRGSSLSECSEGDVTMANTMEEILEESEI
Procedure: (§1) To test the activity of GLP1R agonist payloads and GLP1R agonist linker-payloads (LPs) in vitro, a cell-based cAMP responsive luciferase reporter assay was developed.
(§2) Cells were incubated overnight at 37° C. in 5% CO2. […] Plates were incubated for 5.5 h at 37° C. in 5% CO2. For end-point measurement, 100 μL/well of One-Glo reagent (Promega, #E6051) was added and plates were kept at room temperature for 5-10 minutes. Luciferase activity was measured on Envision Multilabel Plate Reader (Perkin Elmer) in Luminescent mode. The relative light units (RLU) values were obtained and the results were analyzed using nonlinear regression with GraphPad Prism software (GraphPad).

[3] = molecular target: T2, human glucagon receptor (GCGR) (Homo sapiens, UniProt P47871); test: CRE-luciferase reporter assay, HEK293/Myc-hGCGR/Cre-Luc (Example 9); assay type: cell-based; details: Table 5C
T2 construct: full-length human GLP1R, cynomolgus GLP1R, human glucagon receptor (GCGR); expressed in transfected cells; host or cells: HEK293/CRE-Luc
T2 sequence (P47871 26-477): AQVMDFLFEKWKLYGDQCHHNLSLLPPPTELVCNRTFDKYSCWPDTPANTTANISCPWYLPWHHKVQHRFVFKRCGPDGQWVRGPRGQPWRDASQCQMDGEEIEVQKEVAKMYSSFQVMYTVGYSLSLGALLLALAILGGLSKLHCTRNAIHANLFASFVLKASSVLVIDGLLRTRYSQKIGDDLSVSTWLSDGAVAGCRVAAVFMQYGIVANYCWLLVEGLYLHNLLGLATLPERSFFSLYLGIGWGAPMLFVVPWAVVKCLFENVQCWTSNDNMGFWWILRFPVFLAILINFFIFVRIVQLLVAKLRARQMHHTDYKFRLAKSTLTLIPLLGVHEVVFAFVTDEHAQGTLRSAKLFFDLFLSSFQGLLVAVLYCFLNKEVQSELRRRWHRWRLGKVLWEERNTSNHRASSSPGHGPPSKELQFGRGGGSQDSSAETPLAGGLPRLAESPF
Procedure: as §1, §2

[4] = molecular target: T1, human glucagon-like peptide 2 receptor (GLP2R); test: Luciferase reporter assay, HEK293/CRE-Luc/hGLP2R (Example 17); assay type: cell-based; details: Table 28; CRE-dependent luciferase reporter activity
human GLP1R = human GLP1R (Homo sapiens, UniProt P43220); test: CRE-Luc cAMP reporter assay, HEK293/CRE-Luc/hGLP1R (Example 24); assay type: cell-based; set-up: engineered to express full-length human GLP1R, cynomolgus GLP1R; expressed in transfected cells; host or cells: HEK293/CRE-Luc
Chain of human GLP1R (P43220 24-463): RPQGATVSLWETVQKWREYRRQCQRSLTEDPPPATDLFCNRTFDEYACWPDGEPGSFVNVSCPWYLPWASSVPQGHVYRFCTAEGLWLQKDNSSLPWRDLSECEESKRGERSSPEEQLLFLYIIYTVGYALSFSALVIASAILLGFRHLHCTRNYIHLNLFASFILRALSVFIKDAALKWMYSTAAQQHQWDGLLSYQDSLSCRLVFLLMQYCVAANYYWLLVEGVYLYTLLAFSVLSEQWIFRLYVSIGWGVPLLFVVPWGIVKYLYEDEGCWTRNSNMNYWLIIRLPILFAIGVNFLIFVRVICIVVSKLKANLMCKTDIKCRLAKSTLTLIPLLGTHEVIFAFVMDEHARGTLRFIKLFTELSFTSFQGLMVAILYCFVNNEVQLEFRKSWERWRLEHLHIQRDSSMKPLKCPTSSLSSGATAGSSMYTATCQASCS
Source text: To test the activity of GLP1R agonist payloads, GLP1R agonist linker-payloads (LPs), and anti-GLP1R antibody-tethered ligands (ATLs) of the invention, a cell-based cAMP responsive luciferase reporter assay was developed. To generate the assay cell line, the firefly luciferase gene was placed under the control of a cAMP response element (CRE) located upstream of a minimal promoter and transfected into HEK293 cells and referred to herein as HEK293/CRE-Luc cells. HEK293/CRE-Luc cells were then engineered to express full-length human GLP1R (HEK293/CRE-Luc/hGLP1R), cynomolgus GLP1R (HEK293/CRE-Luc/mfGLP1R), or mouse GLP1R (HEK293/CRE-Luc/mGLP1R).
Serial dilutions of free payload and linker payloads (LP) were performed in 100% DMSO (ATCC, #4-X-5), followed by 1:100 dilution in assay media. Test articles were added to cells (1:5 dilution) with the last well in each serial dilution series serving as a blank control containing only assay media for antibodies and ATLs or assay media with 0.2% DMSO for payloads and LPs. After a 5-hour incubation at 37° C., luciferase activity was determined by addition of ONE-Glo reagent (Promega, #E6130) followed by measurement of relative light units (RLUs) on an EnVision Plate Reader (Perkin Elmer).
EC50 values for luminescence assays were determined using a four-parameter logistic equation over a 12-point dose response curve (GraphPad Prism).

[5] = Plasma stability of payloads (t½)

With `CCc1cc(OCCCCn2cc(COCCOCCOCCOCCOCCOCCOCCOCCN)nn2)ccc1-c1ccc(C[C@H](NC(=O)[C@H](CC(=O)O)NC(=O)[C@H](CO)NC(=O)[C@@H](NC(=O)C(C)(Cc2ccccc2F)NC(=O)[C@@H](NC(=O)CNC(=O)[C@H](Cc2nn[nH]n2)NC(=O)C(C)(C)C(=O)NCCc2cnc[nH]2)[C@@H](C)O)[C@@H](C)O)C(=O)N[C@@H](CCCc2cc(C)cc(C)c2)C(N)=O)cc1` (stereo partly shown) [LP11, NH2-PEG8-triazole-P8] the IC50 (hERG potassium channels) was over 100000 nM, the IC50 (hERG potassium channels; human, pH 7.4) was over 100000 nM and the “% Bound” value ([1]; Human Plasma, 4 hours dialysis) was 97.97%. For the same compound, the “% Unbound” value ([1]; Human Plasma, 4 hours dialysis) was 2.03%, the recovery at 4 h, 2 µM ([1]; Human Plasma, 4 hours dialysis) was 89.2% and the fraction unbound at 4 h, 2 µM ([1]; human, plasma, Table 5C) was 0.0203. The solubility (Water solubility) was 60 mM (≈ 119 mg/mL), the “GLP2R EC50 (nM)” value [2] was “Completely inactive” and the “GCGR EC50 (nM)” value [3] was “Completely inactive”.
Compound `CCc1cc(OCCCCn2cc(COCCOCCOCCOCCOCCOCCOCCOCCN)nn2)ccc1-c1ccc(C[C@H](NC(=O)[C@H](CC(=O)O)NC(=O)[C@H](CO)NC(=O)[C@@H](NC(=O)[C@](C)(Cc2ccccc2F)NC(=O)[C@@H](NC(=O)CNC(=O)[C@H](Cc2nn[nH]n2)NC(=O)C(C)(C)C(=O)NCCc2cnc[nH]2)[C@@H](C)O)[C@@H](C)O)C(=O)N[C@@H](CCCc2cc(C)cc(C)c2)C(N)=O)cc1` [M3190] has an EC50 [4] of over 200 nM, an Emax (human GLP1R; HEK293, read-out: HEK293/CRE-Luc/hGLP1R Emax (% GLP-1)) of 93.9% and an EC50 (human GLP1R; Table 40, CRE-dependent reporter activity, no unit printed in table (text b1912 reads values as M)) of 0.0168 nM.
For `CCc1cc(OCCCCN)ccc1-c1ccc(C[C@H](NC(=O)[C@H](CC(=O)O)NC(=O)[C@H](CO)NC(=O)[C@@H](NC(=O)[C@](C)(Cc2ccccc2F)NC(=O)[C@@H](NC(=O)CNC(=O)[C@H](Cc2nn[nH]n2)NC(=O)C(C)(C)C(=O)NCCc2cnc[nH]2)[C@@H](C)O)[C@@H](C)O)C(=O)N[C@@H](CCCc2cc(C)cc(C)c2)C(N)=O)cc1` [P9, (8S,14S,17S,20S,23S,26S)-8-((2H-tetrazol-5-yl)methyl)-26-(((S)-1-(((S)-1-amino-5-(3,5-dimethylphenyl)-1-oxopentan-2-yl)amino)-3-(4′-(4-aminobutoxy)-2′-ethyl-[1,1′-biphenyl]-4-yl)-1-oxopropan-2-yl)carbamoyl)-17-(2-fluorobenzyl)-14,20-bis((R)-1-hydroxyethyl)-23-(hydroxymethyl)-1-(1H-imidazol-5-yl)-5,5,17-trimethyl-4,6,9,12,15,18,21,24-octaoxo-3,7,10,13,16,19,22,25-octaazaoctacosan-28-oic acid] ({Malonyl(2,2-Me2,histaminyl)}-[Ala(1H-tetrazol-5-yl)]GT[αMePhe(2-F)]TSD[Bip(2'-Et,4'-O(CH2)4NH2)][Nva(5-(3,5-Me2Ph))]-NH2), the “Plasma stability t½” value [5] was over 57.8 h.

Reference: patent US20230330254A1 (Regeneron Pharmaceuticals, Inc., priority 2022, published 2023)
